These results are taken from ChEMBL document CHEMBL4130457, “Discovery of AZD-2098 and AZD-1678, Two Potent and Bioavailable CCR4 Receptor Antagonists” (ACS Med Chem Lett, 2017).

Series [1] deals with T1, C-X-C chemokine receptor type 1 (Homo sapiens) (UniProt P25024).
T1 sequence (whole entry): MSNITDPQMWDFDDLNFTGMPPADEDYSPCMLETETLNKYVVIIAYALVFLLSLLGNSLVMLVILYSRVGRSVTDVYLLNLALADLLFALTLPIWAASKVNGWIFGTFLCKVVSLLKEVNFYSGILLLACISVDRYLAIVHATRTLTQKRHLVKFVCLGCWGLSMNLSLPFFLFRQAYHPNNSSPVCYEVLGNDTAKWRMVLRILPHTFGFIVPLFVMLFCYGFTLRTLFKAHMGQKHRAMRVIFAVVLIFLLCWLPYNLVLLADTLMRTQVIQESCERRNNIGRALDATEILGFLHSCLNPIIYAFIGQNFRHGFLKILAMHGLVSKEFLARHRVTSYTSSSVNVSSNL
Put plainly: Antagonist activity at CXCR1 (unknown origin) at 10 uM. The format is functional.

Series [2] deals with T2, C-C chemokine receptor type 4 (Homo sapiens, UniProt P51679).
T2 sequence (P51679 whole entry): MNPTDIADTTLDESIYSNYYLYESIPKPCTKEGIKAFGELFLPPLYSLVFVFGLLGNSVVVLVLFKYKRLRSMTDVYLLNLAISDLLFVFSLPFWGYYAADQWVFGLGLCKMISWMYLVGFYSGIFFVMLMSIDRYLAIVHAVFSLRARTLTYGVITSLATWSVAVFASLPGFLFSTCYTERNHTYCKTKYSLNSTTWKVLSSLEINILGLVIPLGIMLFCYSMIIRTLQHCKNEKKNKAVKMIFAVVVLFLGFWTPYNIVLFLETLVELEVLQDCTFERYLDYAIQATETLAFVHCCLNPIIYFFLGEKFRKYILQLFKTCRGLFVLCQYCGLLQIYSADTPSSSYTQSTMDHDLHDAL
Put plainly: Antagonist activity at human CCR4 expressed in CHO cells coexpressing CD4+ assessed as inhibition of CCL22 induced Ca2+ mobilization. The series is classed as functional, cell-based. A general note: Calcium assays in cells follow changes in intracellular calcium, usually with a dye or a luminescent sensor.

The target in series [3] is T3, C-C chemokine receptor type 1 (Homo sapiens) (UniProt P32246).
T3 sequence (whole entry): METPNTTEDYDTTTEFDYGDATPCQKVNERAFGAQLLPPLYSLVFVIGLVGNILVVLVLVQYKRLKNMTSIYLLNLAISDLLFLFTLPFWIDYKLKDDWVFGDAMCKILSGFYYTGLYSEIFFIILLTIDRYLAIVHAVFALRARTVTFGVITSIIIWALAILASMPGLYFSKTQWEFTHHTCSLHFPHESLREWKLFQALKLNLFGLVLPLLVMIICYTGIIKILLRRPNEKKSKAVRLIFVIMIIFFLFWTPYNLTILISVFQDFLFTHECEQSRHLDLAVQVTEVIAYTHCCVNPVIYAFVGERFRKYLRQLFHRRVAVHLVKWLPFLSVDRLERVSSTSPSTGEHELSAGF
The series is described as follows: Antagonist activity at CCR1 (unknown origin) at 10 uM. The format is functional.

The nature of series [4]: Antagonist activity at rat CCR4.
The nature of series [5]: Clearance in rat at 9 umol/kg, po or 3 umol/kg, iv. The format is ADME, organism-based. The following applies: in vivo.
Series [6] is described as follows: Ratio of free plasma concentration in Brown Norway rat at 15 umol/kg to pIC50 for recombinant human CCR4 expressed in CHO-K1 cells. The series is classed as ADME, cell-based. Conditions: in vivo.
Series [7] is described as follows: Volume of distribution at steady state in dog at 9 umol/kg, po or 3 umol/kg, iv. The format is ADME, organism-based, Canis lupus familiaris. The following applies: in vivo, read-out: Vdss.
In series [8] the target is T4, C-X-C chemokine receptor type 2 (Homo sapiens) (UniProt P25025).
T4 sequence (whole entry): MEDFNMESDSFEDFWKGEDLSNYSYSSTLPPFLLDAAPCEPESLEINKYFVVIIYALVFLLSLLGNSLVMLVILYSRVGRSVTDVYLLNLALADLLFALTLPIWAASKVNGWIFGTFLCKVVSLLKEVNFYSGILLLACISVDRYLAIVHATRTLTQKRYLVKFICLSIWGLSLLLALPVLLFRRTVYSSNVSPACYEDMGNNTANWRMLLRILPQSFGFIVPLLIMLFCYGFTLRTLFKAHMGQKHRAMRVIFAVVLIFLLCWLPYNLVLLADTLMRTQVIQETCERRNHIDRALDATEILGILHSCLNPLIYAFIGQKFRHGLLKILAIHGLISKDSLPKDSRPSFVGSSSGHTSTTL
The series is described as follows: Antagonist activity at CXCR2 (unknown origin) at 10 uM. The format is functional.

The target of series [9] is C-C chemokine receptor type 2 (Homo sapiens) (UniProt P41597). The series is described as follows: Antagonist activity at CCR2b (unknown origin) at 10 uM.
Sequence of C-C chemokine receptor type 2 (Homo sapiens) (P41597 whole entry, looked up): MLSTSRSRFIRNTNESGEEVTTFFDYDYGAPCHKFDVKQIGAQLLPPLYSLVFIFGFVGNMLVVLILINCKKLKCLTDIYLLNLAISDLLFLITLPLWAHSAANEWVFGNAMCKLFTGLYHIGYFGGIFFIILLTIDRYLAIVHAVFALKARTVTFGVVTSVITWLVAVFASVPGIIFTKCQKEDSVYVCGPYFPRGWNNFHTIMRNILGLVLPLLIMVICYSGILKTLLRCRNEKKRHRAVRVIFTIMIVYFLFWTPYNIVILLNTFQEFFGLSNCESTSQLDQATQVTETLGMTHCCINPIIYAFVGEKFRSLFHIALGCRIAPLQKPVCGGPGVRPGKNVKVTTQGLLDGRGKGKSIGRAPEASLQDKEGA
Series [10] in a line: Oral bioavailability in rat at 9 umol/kg. The series is classed as ADME, organism-based. Conditions: in vivo.
The target of series [11] is T5, C-C chemokine receptor type 7 (Homo sapiens) (UniProt P32248).
T5 sequence (whole entry): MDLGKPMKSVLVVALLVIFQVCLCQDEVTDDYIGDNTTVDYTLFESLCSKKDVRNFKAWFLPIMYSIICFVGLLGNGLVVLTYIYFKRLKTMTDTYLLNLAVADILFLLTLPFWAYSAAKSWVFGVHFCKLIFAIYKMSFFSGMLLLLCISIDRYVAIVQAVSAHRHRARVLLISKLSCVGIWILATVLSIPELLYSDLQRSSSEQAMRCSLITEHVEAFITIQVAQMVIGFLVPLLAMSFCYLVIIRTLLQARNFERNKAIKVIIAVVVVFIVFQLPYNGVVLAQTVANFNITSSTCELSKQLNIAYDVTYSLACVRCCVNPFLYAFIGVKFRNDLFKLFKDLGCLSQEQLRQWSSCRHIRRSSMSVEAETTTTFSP
The series is described as follows: Antagonist activity at CCR7 (unknown origin) at 10 uM. The format is functional.

Series [12] addresses T6, C-C chemokine receptor type 4 (Canis lupus familiaris, UniProt Q8MJW8).
T6 sequence (Q8MJW8 whole entry): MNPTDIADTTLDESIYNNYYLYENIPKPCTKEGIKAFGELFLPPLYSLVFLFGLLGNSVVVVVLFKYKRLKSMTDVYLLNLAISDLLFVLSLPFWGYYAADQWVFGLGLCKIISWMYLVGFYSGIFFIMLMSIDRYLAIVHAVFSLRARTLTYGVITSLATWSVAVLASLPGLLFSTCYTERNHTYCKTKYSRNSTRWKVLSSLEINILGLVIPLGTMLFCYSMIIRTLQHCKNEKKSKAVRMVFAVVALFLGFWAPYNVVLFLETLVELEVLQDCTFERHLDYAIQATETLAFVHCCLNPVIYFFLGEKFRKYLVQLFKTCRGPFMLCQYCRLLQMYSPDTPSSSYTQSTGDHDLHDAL
Put plainly: Antagonist activity at dog CCR4.

A short description of series [13]: Oral bioavailability in dog at 9 umol/kg. The series is classed as ADME, organism-based, Canis lupus familiaris. The following applies: in vivo.
Series [14] is described as follows: Terminal trough concentration in OVA-induced Brown Norway rat plasma at 7.5 umol/kg, po bid measured 12 hrs post last dose. The series is classed as ADME, organism-based. Conditions: read-out: Cmin.
A further series concerns Rattus norvegicus. The series is described as follows: Terminal trough concentration in OVA-induced Brown Norway rat plasma at 0.22 to 2.2 umol/kg, po bid measured 12 hrs post last dose. The format is ADME, organism-based. Conditions: in vivo, BLD = below limit of detection.
Series [15] in a line: Clearance in dog at 9 umol/kg, po or 3 umol/kg, iv. The format is ADME, organism-based, Canis lupus familiaris. Conditions: in vivo.
Series [16] is described as follows: Terminal trough concentration in OVA-induced Brown Norway rat plasma at 15 umol/kg, po bid measured 12 hrs post last dose. The series is classed as ADME, organism-based. The following applies: read-out: Cmin.
The subject of another series is Hepatocyte. The series is described as follows: Stability in human hepatocytes assessed per million cells.

Calls of active or inactive are those of the source. No cut-off for these calls is given here. Where only a bound is given, the exact number is not on record here.

For orientation: IC50 means the concentration at which inhibition is half-maximal. What is called pIC50 is −log10 of the IC50, conventionally taken in molar units. The low end stands for a large IC50, the high end for a small IC50. The term bioavailability denotes the share of a dose that reaches the circulation, judged against a reference dose that is usually intravenous. High values mean much systemic uptake, low ones little systemic uptake.

For `COc1nccnc1NS(=O)(=O)c1cccc(Cl)c1Cl`, the result in series [1], in series [3], in series [8], in series [9] and in [11] was inactive. Besides, the figures for the concentration for half-maximal inhibition (IC50) in series [2] and in series [12] were 31.6 nM and 25.1 nM, respectively. The molecule also showed a pIC50 in series [4] of 8. Further, the clearance in series [5] stood at 2 mL/min/kg; in [15], 1.5 mL/min/kg. In addition, the Ratio in series [6] was determined as 9. In addition, the Vd in [7] was determined as 0.1 L/kg. Moreover, the bioavailability in series [10] and in series [13] was 100% in each case. The concentration at 12 h was determined as 140 nM in [14] and 490 nM in series [16]. Moreover, the Cmin entry with Rattus norvegicus is “Bld”. Moreover, the Stability in the series with Hepatocyte is recorded as < 0.2 uL/ml.
